Laboratory results taken from patent US11535632B2, “Solid forms of an S1P-receptor modulator” (ESCAPE Bio, Inc., priority 2019, dated 2022).
Entries after “also recorded” stand apart in the source; their conditions may differ.

Key:
Type in all cases: physicochemical
[1] = Storage for one week at controlled temperature/humidity, XRPD
Procedure: PLM images obtained of the particles show them to be a mixture of laths and larger aggregates typical of an uncontrolled antisolvent crystallization. A peak corresponding to 0.16 molar equivalents of acetic acid is present in the ^1H-NMR spectrum. […] It is evident from the corresponding DSC thermogram that this mass loss coincides with melting of the material (endotherm at 237.7° C.).

[2] = Variable temperature XRPD; conditions: heated in situ to 150° C. at 10° C./min; new form denoted Form E
Procedure: For variable temperature (VT-XRPD) experiments the samples were prepared and analysed in an Anton Paar chromed sample holder with silicon wafer insert. A heating/cooling rate of 10° C./min was used with a 2 min isothermal hold before the measurement started. The measurement parameters are as per the standard screening data collection method (detailed above). Measurements were taken at the following temperatures: 25° C., 150° C. and 25° C.
Compound 1 Form B was analyzed using the Empyrean XRPD at a temperature of 25° C. The sample was then heated in situ using the variable temperature stage to 150° C. at a ramp rate of 10° C./min and held isothermally for 2 minutes whereupon a second XRPD measurement was made. The sample was then cooled to 25° C. at a ramp rate of 10° C./min held isothermally for 2 minutes whereupon a third XRPD measurement was made.

[3] = Gravimetric vapor sorption (GVS)
Procedure: Sorption isotherms were obtained using a SMS DVS Intrinsic moisture sorption analyzer, controlled by DVS Intrinsic Control software. The sample temperature was maintained at 25° C. by the instrument controls. The humidity was controlled by mixing streams of dry and wet nitrogen, with a total flow rate of 200 ml/min. The relative humidity was measured by a calibrated Rotronic probe (dynamic range of 1.0-100% RH), located near the sample. The weight change, (mass relaxation) of the sample as a function of % RH was constantly monitored by a microbalance (accuracy ±0.005 mg).
Typically, 5-30 mg of sample was placed in a tared mesh stainless steel basket under ambient conditions. The sample was loaded and unloaded at 40% RH and 25° C. (typical room conditions). A moisture sorption isotherm was performed as outlined below (2 scans per complete cycle). The standard isotherm was performed at 25° C. at 10% RH intervals over a 0-90% RH range. Typically, a double cycle (4 scans) was carried out. Data analysis was carried out within Microsoft Excel using the DVS Analysis Suite.

[4] = Solid state stability study
Source text: The two lots of Compound 1 were characterized by HPLC, PLM, XRPD, DSC, TGA, and KF. […] According to the stability study at different conditions, the two forms of compound were practically stable at different humidity for at least 4 weeks, with no XRPD pattern change and no growth of impurities were found.

[5] = Hygroscopicity evaluation by DVS at 25° C.
Procedure: Hygroscopicity of Compound 1, Form A and Compound 1, Form B was evaluated by DVS at 25° C.

Water activity study = assay: Water activity study
Procedure: About 15 mg of Form A and 15 mg of Form B were added to the saturated solutions of different water activities and equilibrated at 25° C. and 50° C. for 4 days, respectively. The resulting suspensions were filtered, and the solid parts (wet cake) were investigated by XRPD to determine the polymorph.
According to XRPD results, Form B was obtained in methanol/water with water activity (a.w.) ranging from 0.1 to 0.9 at 25° C., as shown in FIGS. 20A-20B. At 50° C., Form B was obtained in methanol/water with a.w. ≥0.2, whereas a mixture of Form A and Form B was obtained in a.w. […] The water activity of the binary solvent system was calculated based on UNIFAC method (UNIQUAC Functional-group Activity Coefficients).

[6] = Room temperature equilibrium solubility in aqueous suspensions; conditions: listed as Compound 1, Form B; for Total drug in solution: room temperature equilibrium, HPLC of supernatant

SMILES: O=C(O)[C@H]1C[C@@H](N2CCc3oc(-c4ccc(OCc5ccc(Cl)cc5)cc4)nc3C2)C1 [Form B, (1s,3s)-3-(2-(4-((4-chlorobenzyl)oxy)phenyl)-6,7-dihydrooxazolo[4,5-c]pyridin-5(4H)-yl)cyclobutane-1-carboxylic acid]
- XRPD after storage ([1]; 25° C./97% RH for one week): did not result in changes to material as measured by XRPD; also recorded: Unchanged by XRPD
- XRPD after storage ([1]; 40° C./75% RH for one week): did not result in changes to material as measured by XRPD; also recorded: Unchanged by XRPD
- XRPD after heating [2]: change in Form by XRPD
- XRPD post GVS analysis [3]: Unchanged by XRPD post analysis; also recorded: Sample unchanged by XRPD
- Relative humidity at which the monohydrate is stable ([3]; readily rehydrates after water loss): > 20 % RH
- Crystallinity (XRPD & PLM) ([4]; 4 weeks, 25° C./60% RH): Crystalline
- Purity ([4]; 4 weeks, 25° C./60% RH): 99.55%
- Weight loss (TGA) (~120° C.) ([4]; 4 weeks, 25° C./60% RH): 2.374%
- Crystallinity (XRPD & PLM) ([4]; 4 weeks, 40° C./75% RH): Crystalline
- Purity ([4]; 4 weeks, 40° C./75% RH): 99.55%
- Weight loss (TGA) (~120° C.) ([4]; 4 weeks, 40° C./75% RH): 2.319%
- Crystallinity (XRPD & PLM) ([4]; 6 weeks, 25° C./60% RH): Crystalline
- Purity ([4]; 6 weeks, 25° C./60% RH): 99.54%
- Water content ([4]; 6 weeks, 25° C./60% RH): 3.361%
- Weight loss (TGA) (~120° C.) ([4]; 6 weeks, 25° C./60% RH): 2.364%
- Crystallinity (XRPD & PLM) ([4]; 6 weeks, 40° C./75% RH): Crystalline
- Purity ([4]; 6 weeks, 40° C./75% RH): 99.53%
- Water content ([4]; 6 weeks, 40° C./75% RH): 3.301%
- Weight loss (TGA) (~120° C.) ([4]; 6 weeks, 40° C./75% RH): 2.276%
- Crystallinity (XRPD & PLM) ([4]; 8 weeks, 25° C./60% RH): Crystalline
- Purity ([4]; 8 weeks, 25° C./60% RH): 99.54%
- Water content ([4]; 8 weeks, 25° C./60% RH): 3.830%
- Weight loss (TGA) (~120° C.) ([4]; 8 weeks, 25° C./60% RH): 2.943%
- Crystallinity (XRPD & PLM) ([4]; 8 weeks, 40° C./75% RH): Crystalline
- Purity ([4]; 8 weeks, 40° C./75% RH): 99.55%
- Water content ([4]; 8 weeks, 40° C./75% RH): 3.494%
- Weight loss (TGA) (~120° C.) ([4]; 8 weeks, 40° C./75% RH): 3.809%
- Crystallinity (XRPD & PLM) ([4]; Initial): Crystalline
- Purity ([4]; Initial): 99.54%
- Water content ([4]; Initial): 3.677%
- Weight loss (TGA) (~120° C.) ([4]; Initial): 2.233%
- DVS Desorp. (%) ([5]; 0% RH, 1st Desorp.): 0.01%
- DVS Sorp. (%) ([5]; 0% RH, 2nd Sorp.): 0.01%
- DVS Desorp. (%) ([5]; 10% RH, 1st Desorp.): 0.95%
- DVS Sorp. (%) ([5]; 10% RH, 2nd Sorp.): 0.65%
- DVS Desorp. (%) ([5]; 20% RH, 1st Desorp.): 1.03%
- DVS Sorp. (%) ([5]; 20% RH, 2nd Sorp.): 0.96%
- DVS Desorp. (%) ([5]; 30% RH, 1st Desorp.): 1.08%
- DVS Sorp. (%) ([5]; 30% RH, 2nd Sorp.): 1.00%
- DVS Desorp. (%) ([5]; 40% RH, 1st Desorp.): 1.14%
- DVS Sorp. (%) ([5]; 40% RH, 1st Sorp.): 1.09%
- DVS Desorp. (%) ([5]; 40% RH, 2nd Desorp.): 1.06%
- DVS Sorp. (%) ([5]; 40% RH, 2nd Sorp.): 1.03%
- DVS Desorp. (%) ([5]; 50% RH, 1st Desorp.): 1.18%
- DVS Sorp. (%) ([5]; 50% RH, 1st Sorp.): 1.10%
- DVS Desorp. (%) ([5]; 50% RH, 2nd Desorp.): 1.11%
- DVS Sorp. (%) ([5]; 50% RH, 2nd Sorp.): 1.06%
- DVS Desorp. (%) ([5]; 60% RH, 1st Desorp.): 1.21%
- DVS Sorp. (%) ([5]; 60% RH, 1st Sorp.): 1.14%
- DVS Desorp. (%) ([5]; 60% RH, 2nd Desorp.): 1.10%
- DVS Sorp. (%) ([5]; 60% RH, 2nd Sorp.): 1.09%
- DVS Desorp. (%) ([5]; 70% RH, 1st Desorp.): 1.26%
- DVS Sorp. (%) ([5]; 70% RH, 1st Sorp.): 1.18%
- DVS Desorp. (%) ([5]; 70% RH, 2nd Desorp.): 1.13%
- DVS Sorp. (%) ([5]; 70% RH, 2nd Sorp.): 1.12%
- DVS Desorp. (%) ([5]; 80% RH, 1st Desorp.): 1.28%
- DVS Sorp. (%) ([5]; 80% RH, 1st Sorp.): 1.22%
- DVS Desorp. (%) ([5]; 80% RH, 2nd Desorp.): 1.18%
- DVS Sorp. (%) ([5]; 80% RH, 2nd Sorp.): 1.17%
- DVS Desorp. (%) ([5]; 90% RH, 1st Desorp.): 1.33%
- DVS Sorp. (%) ([5]; 90% RH, 1st Sorp.): 1.29%
- DVS Desorp. (%) ([5]; 90% RH, 2nd Desorp.): 1.24%
- DVS Sorp. (%) ([5]; 90% RH, 2nd Sorp.): 1.22%
- DVS Desorp. (%) ([5]; 95% RH, 1st Desorp.): 1.38%
- DVS Sorp. (%) ([5]; 95% RH, 1st Sorp.): 1.38%
- DVS Desorp. (%) ([5]; 95% RH, 2nd Desorp.): 1.30%
- DVS Sorp. (%) ([5]; 95% RH, 2nd Sorp.): 1.30%
- Hygroscopicity based on DVS results ([5]; listed as Compound 1, Form B): slightly hygroscopic
- XRPD after DVS test ([5]; listed as Compound 1, Form B): no form change
- critical water activity between Form A and Form B (Water activity study; 25° C., methanol/water): less than 0.1
- Relative stability of forms (Water activity study; ambient condition): more stable than Form A
- Total drug in solution ([6]; 0.2% HPMC aqueous suspension): <1 µg/mL
- pH ([6]; 0.2% HPMC aqueous suspension): 6.7
- Total drug in solution ([6]; 0.25% SLS aqueous suspension): 7.8 µg/mL
- pH ([6]; 0.25% SLS aqueous suspension): 6.0
- Total drug in solution ([6]; 20% HP-BCD aqueous suspension): 74.2 µg/mL
- pH ([6]; 20% HP-BCD aqueous suspension): 6.1
